ChEMBL document CHEMBL1127917, “The phosphonate analog of 5-methylthioribose 1--phosphate” (Bioorg Med Chem Lett, 1994)
Active and inactive are the calls of the source. No cut-off for these calls is given here.

Tested on: Klebsiella pneumoniae
Assay: Tested for inhibition of oxygen uptake by the compound included in an extract of Klebsiella pneumoniae along with substrate 1 at the dose of 0.8 mM; No inhibition
Type: functional, organism-based

CSCC1OC(CP(=O)(O)O)[C@H](O)[C@@H]1O (stereo partly specified)
Activity: inactive
